Experimental data published in ChEMBL document CHEMBL1137122, “Solution phase parallel synthesis and evaluation of MAPK inhibitory activities of close structural analogues of a Ras pathway modulator” (Bioorg Med Chem Lett, 2004).

Legend:
HCT-116 [1] = test: Ability of compound to inhibit anchorage independent colony formation (soft agar growth assay) in HCT116 cells; type: functional; settings: Homo sapiens
HCT-116 [2] = test: Antiproliferative activity was evaluated using HCT116 cells in WST-1 assay; type: functional; settings: Homo sapiens
[3] = biological target: T1, Serine/threonine-protein kinase RAF and Dual specificity mitogen-activated protein kinase kinase 1 (Raf/MEK) (Homo sapiens, UniProt P04049+Q02750); test: Inhibition of EGF-stimulated Elk1-luciferase reporter assay in HeLa cells; type: functional, cell-based
T1 sequence (P04049 whole entry, looked up): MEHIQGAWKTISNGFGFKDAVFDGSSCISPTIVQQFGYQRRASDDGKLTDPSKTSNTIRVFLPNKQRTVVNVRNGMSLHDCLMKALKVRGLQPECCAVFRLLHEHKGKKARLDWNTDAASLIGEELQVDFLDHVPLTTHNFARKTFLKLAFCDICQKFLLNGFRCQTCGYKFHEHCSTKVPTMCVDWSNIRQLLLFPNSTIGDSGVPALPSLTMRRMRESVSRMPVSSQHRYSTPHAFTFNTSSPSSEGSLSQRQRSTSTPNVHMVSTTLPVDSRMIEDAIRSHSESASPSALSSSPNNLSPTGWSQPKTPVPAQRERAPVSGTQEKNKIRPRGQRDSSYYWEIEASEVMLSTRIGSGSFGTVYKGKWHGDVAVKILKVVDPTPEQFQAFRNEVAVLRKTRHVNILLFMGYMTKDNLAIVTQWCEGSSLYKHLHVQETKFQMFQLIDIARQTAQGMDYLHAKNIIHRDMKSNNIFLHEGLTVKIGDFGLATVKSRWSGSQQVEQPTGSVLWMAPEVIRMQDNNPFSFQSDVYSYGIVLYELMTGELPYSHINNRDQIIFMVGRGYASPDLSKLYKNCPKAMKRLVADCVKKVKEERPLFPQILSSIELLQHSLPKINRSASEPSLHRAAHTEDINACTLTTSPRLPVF
T1 sequence (Q02750 whole entry, looked up): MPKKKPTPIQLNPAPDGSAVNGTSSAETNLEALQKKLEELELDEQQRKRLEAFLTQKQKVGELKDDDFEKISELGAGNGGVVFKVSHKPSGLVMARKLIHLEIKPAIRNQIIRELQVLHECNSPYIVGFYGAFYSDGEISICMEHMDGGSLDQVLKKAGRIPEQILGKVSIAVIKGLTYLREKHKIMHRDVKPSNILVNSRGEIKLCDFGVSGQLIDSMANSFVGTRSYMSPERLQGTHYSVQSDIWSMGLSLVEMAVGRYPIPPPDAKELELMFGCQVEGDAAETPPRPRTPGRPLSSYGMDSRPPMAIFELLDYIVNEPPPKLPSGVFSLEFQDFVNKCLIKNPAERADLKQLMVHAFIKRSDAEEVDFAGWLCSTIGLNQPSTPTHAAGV

[4] = biological target: T1, Serine/threonine-protein kinase RAF and Dual specificity mitogen-activated protein kinase kinase 1 (Raf/MEK); test: Inhibitory activity in EGF-stimulated Elk1-luciferase reporter assay in HeLa cells at 20 uM; type: functional, cell-based
HCT-116 [5] = test: cells; settings: Homo sapiens
Description: Antiproliferative activity was evaluated using HCT116 cells in WST-1 assay at 15 uM

[6] = biological target: T1, Serine/threonine-protein kinase RAF and Dual specificity mitogen-activated protein kinase kinase 1 (Raf/MEK); test: Inhibitory activity in EGF-stimulated Elk1-luciferase reporter assay in HeLa cells at 60 uM; type: functional, cell-based
HCT-116 [7] = test: Antiproliferative activity was evaluated using HCT116 cells in WST-1 assay at 60 uM; type: functional; settings: Homo sapiens
[8] = biological target: T1, Serine/threonine-protein kinase RAF and Dual specificity mitogen-activated protein kinase kinase 1 (Raf/MEK); test: Inhibitory activity in EGF-stimulated Elk1-luciferase reporter assay in HeLa cells at 30 uM; type: functional, cell-based
[9] = biological target: T1, Serine/threonine-protein kinase RAF and Dual specificity mitogen-activated protein kinase kinase 1 (Raf/MEK); test: Inhibitory activity in EGF-stimulated Elk1-luciferase reporter assay in HeLa cells at 15 uM; type: functional, cell-based

| GI50 (HCT-116 [1]) [µM] | GI50 (HCT-116 [2]) [µM] | IC50 [3] [µM] | SMILES | further results |
| --- | --- | --- | --- | --- |
| 23.5 | 13.2 | 11.2 | COc1cc(CN(CCc2ccccn2)C(=O)CCC(C)c2ccccc2)ccc1OCc1ccccc1 (centres undefined) |  |
| 20.6 | 16.2 | 9 | COc1cc(CN(CCc2ccccn2)C(=O)CCCCc2ccccc2)ccc1OCc1ccccc1 |  |
| 22.1 | 24.7 | 20.6 | COc1cc(CN(CCc2ccccn2)C(=O)c2ccccc2Cl)ccc1OCc1ccccc1 |  |
| 25.9 | 23.9 | 10.5 | COc1cc(CN(CCc2ccccn2)C(=O)C2CC2c2ccccc2)ccc1OCc1ccccc1 (trans isomer) |  |

Continued, compound first:

| SMILES | GI50 (HCT-116 [1]) [µM] | GI50 (HCT-116 [2]) [µM] | IC50 [3] [µM] | further results |
| --- | --- | --- | --- | --- |
| COc1cc(CN(CCc2ccccn2)C(=O)C(N)Cc2ccccc2)ccc1OCc1ccccc1 (centres undefined) |  |  |  | inhibition [4]: 14% |
| COc1ccc(CN(CCc2ccccn2)C(=O)c2ccccc2Cl)cc1OC |  |  |  | inhibition [4]: 24% |
| COc1cc(C(=O)N(CCc2ccccn2)Cc2ccccc2Cl)ccc1OCc1ccccc1 | 18.8 | 29 | 16.2 |  |
| COc1ccc(CN(CCc2ccccn2)C(=O)c2ccccc2Cl)cc1OCc1ccccc1 |  |  |  | inhibition [4]: 32% |
| N#CC(=C(/N)Sc1ccccc1N)/C(C#N)=C(\N)Sc1ccccc1N | 19.4 |  |  | inhibition at 15 µM (HCT-116 [5]): 35% |
| COc1cc(CN(CCc2ccccn2)C(=O)CNCc2ccccc2)ccc1OCc1ccccc1 |  |  |  | inhibition [4]: 6% |
| O=C(CCCCc1ccccc1)N(CCc1ccccn1)Cc1ccc(OCc2ccccc2)c(O)c1 |  | 31.6 | 19.4 |  |
| COc1cc(CN(Cc2ccccc2Cl)C(=O)Cc2ccccn2)ccc1OCc1ccccc1 |  |  | 25.3 |  |
| O=C(c1ccccc1Cl)N(CCc1ccccn1)CC1CCN(CCc2ccccc2)CC1 |  |  |  | inhibition [6]: 7%; inhibition at 60 µM (HCT-116 [7]): 32% |
| O=C(CCCCc1ccccc1)N(CCc1ccccn1)Cc1ccc(OCc2ccccc2)c(OCCO)c1 | 14.4 | 18.6 | 14.2 |  |
| COc1cc(CN(CCc2ccccn2)C(=O)COCc2ccccc2)ccc1OCc1ccccc1 |  |  |  | inhibition [4]: 43% |
| COc1cc(CN(CCC2CCCCN2)C(=O)CCCc2ccccc2)ccc1OCc1ccccc1 (centres undefined) | 3.5 | 5.4 |  | inhibition [8]: 100%; inhibition [9]: 0% |
| CNC(=O)c1cc(Oc2ccc(NC(=O)Nc3ccc(Cl)c(C(F)(F)F)c3)cc2)ccn1 [SORAFENIB] | 6.6 | 5.4 |  |  |
| COc1cc(CN(CCc2cccc(O)n2)C(=O)CCCCc2ccccc2)ccc1OCc1ccccc1 | 32.3 | 22.6 | 12.3 |  |
